Source: patent US20260250290A1 (BRISTOL-MYERS SQUIBB COMPANY, priority 2023, published 2026)

What follows are molecules tested against T1, SGK1 (Homo sapiens, UniProt O00141) (assay: SGK1 inhibition Assay B (Echo mass spectrometry of phosphorylated peptide product)). Conditions: 60 min at room temperature.
T1 sequence (O00141 1-431): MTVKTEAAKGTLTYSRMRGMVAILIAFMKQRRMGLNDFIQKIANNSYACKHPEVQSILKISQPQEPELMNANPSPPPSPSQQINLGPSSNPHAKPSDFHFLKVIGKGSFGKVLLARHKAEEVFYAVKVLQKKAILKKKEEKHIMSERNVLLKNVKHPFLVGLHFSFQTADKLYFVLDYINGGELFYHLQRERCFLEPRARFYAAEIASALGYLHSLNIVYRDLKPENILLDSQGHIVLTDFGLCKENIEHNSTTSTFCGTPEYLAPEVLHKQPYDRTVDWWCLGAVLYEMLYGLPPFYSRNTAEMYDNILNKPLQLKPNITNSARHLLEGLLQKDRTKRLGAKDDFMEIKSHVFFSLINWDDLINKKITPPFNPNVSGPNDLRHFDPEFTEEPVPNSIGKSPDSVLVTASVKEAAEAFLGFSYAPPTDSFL
Format: biochemical

In order of rising IC50:
1. Nc1ncnn2c(-c3ccc(-n4cnnn4)c(F)c3)cc(N3CCC[C@@H](NC(=O)c4sc(Cl)cc4OC4CCC(O)CC4)C3)c12 (single isomer, unassigned; isomer 2) [Example 935]  0.2 nM
2. CCC1=C(c2cc(N3CCC[C@@H](NC(=O)c4sc(C)nc4O[C@H]4CC[C@@H](NC(C)CO)CC4)C3)c3c(N)ncnn23)COC1=O (single isomer, unassigned) [Example 1019]  0.5 nM
3. CCC1=C(c2cc(N3CCC[C@@H](NC(=O)c4sc(C)nc4OC4CCC(N5CC(O)C5)CC4)C3)c3c(N)ncnn23)COC1=O (single isomer, unassigned) [Example 1021]  0.7 nM
4. Cc1nc(OC2CC3CC2CN3C(C)C)c(C(=O)N[C@@H]2CCCN(c3cc(-c4ccc(-n5cnnn5)c(F)c4)n4ncnc(N)c34)C2)s1 (single isomer, unassigned) [Example 949]  0.8 nM
5. CCC1=C(c2cc(N3CCC[C@@H](NC(=O)c4sc(C)nc4OC4CCC(N[C@@H](C)COC)CC4)C3)c3c(N)ncnn23)COC1=O (single isomer, unassigned) [Example 1023]  0.8 nM
6. CCC1=C(c2cc(N3CCC[C@@H](NC(=O)c4sc(C)nc4OC4CCC(N[C@H](C)COC)CC4)C3)c3c(N)ncnn23)COC1=O (single isomer, unassigned) [Example 1024]  0.8 nM
7. Cc1nc(O[C@@H]2CCC[C@H](N(C)C)C2)c(C(=O)N[C@@H]2CCCN(c3cc(-c4ccc(C(N)=O)c(F)c4)n4ncnc(N)c34)C2)s1 (single isomer, unassigned; isomer 1) [Example 939]  0.9 nM
8. Cc1nc(OC2CCC(NC3CC3)CC2)c(C(=O)N[C@@H]2CCCN(c3cc(-c4ccc(C(N)=O)c(F)c4)n4ncnc(N)c34)C2)s1 (single isomer, unassigned) [Example 941]  1 nM
9. CCC1=C(c2cc(N3CCC[C@@H](NC(=O)c4sc(C)nc4O[C@H]4CC[C@@H](NC(C)CO)CC4)C3)c3c(N)ncnn23)COC1=O (single isomer, unassigned) [Example 1020]  1.1 nM
10. Cc1nc(OC2CCC(N3CCC3)CC2)c(C(=O)N[C@@H]2CCCN(c3cc(-c4ccc(C(N)=O)c(F)c4)n4ncnc(N)c34)C2)s1 (single isomer, unassigned) [Example 943]  2 nM
11. CC(=O)N1CC=C(c2cc(N3CCC[C@@H](NC(=O)c4sc(Cl)cc4OC4CCN(C)C(C)(C)C4)C3)c3c(N)ncnn23)C1 (single isomer, unassigned) [Example 948]  2 nM
12. Cc1nc(OC2CC3CCC2CN3CCO)c(C(=O)N[C@@H]2CCCN(c3cc(-c4cnc(C#N)c(F)c4)n4ncnc(N)c34)C2)s1 (single isomer, unassigned) [Example 993]  2 nM
13. CC(=O)N1CC=C(c2cc(N3CCC[C@@H](NC(=O)c4sc(Cl)cc4OC4CCC(N5CCOCC5)CC4)C3)c3c(N)ncnn23)C1 (single isomer, unassigned; isomer 1) [Example 936]  2 nM
14. COC(=O)N1CC=C(c2cc(N3CCC[C@@H](NC(=O)c4sc(C)nc4OC4CCNCC4)C3)c3c(N)ncnn23)C1 [Example 359, Methyl (R)-3-(4-amino-5-(3-(2-methyl-4-(piperidin-4-yloxy)thiazole-5-carboxamido)piperidin-1-yl)pyrrolo[2,1-f][1,2,4]triazin-7-yl)-2.5-dihydro-1H-pyrrole-1-carboxylate]  3 nM
15. Cc1nc(OC2COC3(CCNCC3)C2)c(C(=O)N[C@@H]2CCCN(c3cc(-c4ccc(C(N)=O)c(F)c4)n4ncnc(N)c34)C2)s1 (single isomer, unassigned) [Example 954]  4 nM
16. CC(=O)N1CC=C(c2cc(N3CCC[C@@H](NC(=O)c4sc(Cl)cc4OC4CC5CC(C4)N(C)C5)C3)c3c(N)ncnn23)C1 (single isomer, unassigned) [Example 952]  7 nM
17. COC(=O)N1CC=C(c2cc(N3CCC[C@@H](NC(=O)c4sc(C)nc4OC4CC5CC(C4)N(C(C)C)C5)C3)c3c(N)ncnn23)C1 (single isomer, unassigned) [Example 953]  7 nM
18. Cc1nc(OC2CC3CCC2CN3C)c(C(=O)N[C@@H]2CCCN(c3cc(-c4ccc(-n5cnnn5)nc4)n4ncnc(N)c34)C2)s1 (single isomer, unassigned) [Example 992]  10 nM
19. CCN1CCC(Oc2nc(C)sc2C(=O)N[C@@H]2CCCN(c3cc(C4=CCN(C(C)=O)C4)n4ncnc(N)c34)C2)CC1(C)C (single isomer, unassigned) [Example 946]  12 nM
20. CC(=O)N1CC=C(c2cc(N3CCC[C@@H](NC(=O)c4sc(C#N)cc4O[C@@H]4C[C@H]5CC[C@@H](C4)N5C)C3)c3c(N)ncnn23)C1 [Example 753]  12 nM
21. COC(=O)N1CC=C(c2cc(N3CCC[C@@H](NC(=O)c4sc(C)nc4OC4CCN(C)CC4)C3)c3c(N)ncnn23)C1 [Example 360, Methyl (R)-3-(4-amino-5-(3-(2-methyl-4-((1-methylpiperidin-4-yl)oxy)thiazole-5-carboxamido)piperidin-1-yl)pyrrolo[2,1-f][1,2,4]triazin-7-yl)-2,5-dihydro-1H-pyrrole-1-carboxylate]  14 nM
22. CCOC1=C(C(=O)N[C@@H]2CCCN(c3cc(C4=CCN(C(C)=O)C4)n4ncnc(N)c34)C2)CN(c2ccc(OC)cc2)C1=O [Example 755, (R)-N-(1-(7-(1-acetyl-2,5-dihydro-1H-pyrrol-3-yl)-4-aminopyrrolo[2,1-f][1,2,4]triazin-5-yl)piperidin-3-yl)-4-ethoxy-1-(4-methoxyphenyl)-5-oxo-2,5-dihydro-1H-pyrrole-3-carboxamide]  21 nM
23. COC(=O)N1CC=C(c2cc(N3CCC[C@@H](NC(=O)c4sc(C)nc4OC4CCN(C(C)C)CC4)C3)c3c(N)ncnn23)C1 [Example 361, Methyl (R)-3-(4-amino-5-(3-(4-((1-isopropylpiperidin-4-yl)oxy)-2-methylthiazole-5-carboxamido)piperidin-1-yl)pyrrolo[2,1-f][1,2,4]triazin-7-yl)-2,5-dihydro-1H-pyrrole-1-carboxylate]  26 nM
24. CCOC1=C(C(=O)N[C@@H]2CCCN(c3cc(C4=CCN(C(C)=O)C4)n4ncnc(N)c34)C2)CN(c2ccc(F)cc2F)C1=O [Example 756]  52 nM
25. CC(=O)N1CC=C(c2cc(N3CCC[C@@H](NC(=O)[C@]45CCC[C@H]4C5)C3)c3c(N)ncnn23)C1 (mixture of isomers) [Example 916, (cis)-N-[(3R)-1-[7-(1-acetyl-2,5-dihydro-1H-pyrrol-3-yl)-4-aminopyrrolo[2,1-f][1,2,4]triazin-5-yl]piperidin-3-yl]bicyclo[3.1.0]hexane-1-carboxamide]  56 nM
26. CCOC1=C(C(=O)N[C@@H]2CCCN(c3cc(C4=CCN(C(C)=O)C4)n4ncnc(N)c34)C2)CN(C2(C(F)(F)F)CC2)C1=O [Example 757, (R)-N-(1-(7-(1-acetyl-2,5-dihydro-1H-pyrrol-3-yl)-4-aminopyrrolo[2,1-f][1,2,4]triazin-5-yl)piperidin-3-yl)-4-ethoxy-5-oxo-1-(1-(trifluoromethyl)cyclopro-pyl)-2,5-dihydro-1H-pyrrole-3-carboxamide]  89 nM
27. COC1=C(C(=O)N[C@@H]2CCCN(c3cc(C4=CCN(C(C)=O)C4)n4ncnc(N)c34)C2)CN(C)C1=O [Example 754, (R)-N-(1-(7-(1-acetyl-2,5-dihydro-1H-pyrrol-3-yl)-4-aminopyrrolo[2,1-f][1,2,4]triazin-5-yl)piperidin-3-yl)-4-methoxy-1-methyl-5-oxo-2,5-dihydro-1H-pyrrole-3-carboxamide]  163 nM

Each molecule was assayed against T2, full length SGK1 (Homo sapiens, UniProt O00141) (assay: SGK1 inhibition Assay A (Caliper LabChip electrophoretic separation of fluorescent peptide substrate and phosphorylated product)). Conditions: Assay A; 20 μM ATP, 40 min incubation; read-out: SGK1 IC50.
T2 construct: 125 μM full length SGK1 (Life Technologies Part #PR7358A); purchased Life Technologies PR7358A
T2 sequence (O00141 1-431): T1 sequence (O00141 1-431)
Format: biochemical

In order of falling IC50:
1. tert-butyl (R)-3- ((2-((1-(4-amino- 7-(6-cyanopyridin-3- yl)pyrrolo[2,1-f] [1,2,4]triazin-5- yl)piperidin-3- yl)carbamoyl) benzo[b]thiophen- 3-yl)oxy)azetidine- 1-carboxylate [Example 672]  65 nM
2. (R)-N-(1-(4-amino-7-(1-ethyl-1H-pyrazol-5-yl)pyrrolo[2,1-f][1,2,4]triazin-5-yl)piperidin-3-yl)-6-(4-methylpiperazin-1-yl)picolinamide [Example 790]  30 nM
3. Methyl (R)-3-(4-amino-5-(3- (5-(difluoromethyl)-3- morpholinothiophene-2- carboxamido)piperidin-1- yl)pyrrolo[2,1-f][1,2,4]triazin- 7-yl)-2,5-dihydro-1H-pyrrole- 1-carboxylate [Example 320]  25 nM
4. methyl (R)-3-(4-amino-5-(3-(6-(4-methylpiperazin-1-yl)picolinamido)piperidin-1-yl)pyrrolo[2,1-f][1,2,4]triazin-7-yl)-2,5-dihydro-1H-pyrrole-1-carboxylate [Example 789]  17 nM
5. methyl 3-(4-amino-5-((3R)-3-(5-chloro-3-((2-methylpiperidin-4-yl)oxy)thiophene-2-carboxamido)piperidin-1-yl)pyrrolo[2,1-f][1,2,4]triazin-7-yl)-2,5-dihydro-1H-pyrrole-1-carboxylate [Example 621]  6 nM
6. (R)-N-(1-(4-amino-7-(1-(isoxazole-3-carbonyl)-2,5-dihydro-1H-pyrrol-3-yl)pyrrolo[2,1-f|[1,2,4]triazin-5-yl)piperidin-3-y1)-5-chloro-3-(2-(dimethylamino)ethoxy)thiophene-2-carboxamide [Example 906]  1 nM
7. (R)-N-(1-(7-(1-acetyl-2,5-dihydro-1H-pyrrol-3-yl)-4-aminopyrrolo[2,1-f][1,2,4]triazin-5-yl)piperidin-3-yl)-5-chloro-3-(piperidin-4-yloxy)thiophene-2-carboxamide [Example 575]  1 nM
